# Data taken from PubChem BioAssay AID1191 (EPA DSSTox, 2008).
# Calls of active or inactive are those of the source.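 The calls were made as follows: active = at least one hamster carcinogenic potency value with a tumor site listed for any sex group; inactive = no potency or tumor site yet a negative hamster study.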
# Tested on: hamster chronic carcinogenicity bioassay, TD50
# Assay: DSSTox (CPDBAS) Carcinogenic Potency Database Summary Hamster Bioassay Results
# From the text: The Carcinogenic Potency Database (CPDB) is a unique and widely used international resource of the results of over 6500 chronic, long-term animal cancer tests on over 1500 chemical substances. The CPDB provides easy access to the bioassay literature, with qualitative and quantitative analyses of both positive and negative experiments that have been published over the past 50 years in the general literature and by the National Cancer Institute/National Toxicology Program. The CPDB standardizes the diverse literature of cancer bioassays that vary widely in protocol, histopathological examination and nomenclature, and in the published author's choices of what information to provide in their papers. Results are reported in the CPDB for tests in rats, mice, hamsters, dogs, and nonhuman primates, and are based on the most positive result among all experiments for each sex-species. The DSSTox CPDBAS (all species) file incorporates data from the CPDB Summary Tables for the full list of over 1500 chemical substances tested in at least one species. Summary bioassay results for Hamster (TD50, tumor sites, male, female, both sexes) are provided in the CPDB Summary Tables and the DSSTox CPDBAS file for over 80 chemical substances.
# TD50 is a standardized quantitative measure of carcinogenic potency (analogous to an LD50) and is reported in the CPDB Summary Table for each species. Activity Score for actives is computed by mapping of LOG10 (1/TD50_Hamster_mmol) activity values spanning range [MIN, MAX] onto Integer 1-100 Activity Score range, where 100 is highest potency and 1 is lowest: Activity Score = 100 * INTEGER[(log10(1/Activity) - MIN)/(MAX - MIN)]. If activity is reported but no TD50_Hamster_mmol value is computed, such as for a mixture, the Activity Score is assigned the activity value "50". […] Target sites are reported for each sex-species group with a positive result in the CPDB on the basis of a positive author's opinion for the particular site, using all results from both the general literature and NCI/NTP bioassays. If a chemical has two or more target sites listed, the results may be from different experiments, and a single site may be a target organ in more than one experiment, as well. Blank entry in TargetSites field indicates no results reported.
Structure (SMILES),Potency [mg/kg/day],outcome
O=NN1CCCC1,14.2,–
CC(C)(OCc1ccc(-c2ccc(Cl)cc2)cc1)C(=O)O,–,inactive; no positive results
CCN(N=O)C(=O)NCC(C)=O,0.443,–
CC(O)CN(CC(O)CO)N=O (stereo not given),1.59,–
CN(N)C=O,5.8,–
CCOC(N)=O,65.2,–
O=c1c(O)c(-c2ccc(O)c(O)c2)oc2cc(O)cc(O)c12,–,inactive; no positive results
S=C=NCCc1ccccc1,–,inactive
CC1CN(N=O)C(=O)O1 (stereo not given),0.172,–
CC(=O)CN(CCO)N=O,0.997,–
Cc1cccc(Nc2cc(Cl)nc(SCC(=O)O)n2)c1C,–,inactive; no positive results
O=NN1CCCC1c1ccc[n+]([O-])c1 (stereo not given),–,inactive; no positive results
Nc1ncn[nH]1,–,inactive; no positive results
C=C(C)C(=O)OC,–,inactive; no positive results
CC1CN(N=O)CC(C)O1 (stereo not given),2,–
CNNC,0.179,–
ClC=C(Cl)Cl,–,inactive; no positive results
N=C1C=CC(=C(c2ccc(N)cc2)c2ccc(N)cc2)C=C1,–,inactive; no positive results
CC(C)OC(=O)Nc1ccccc1,–,inactive; no positive results
O=C(O)c1ccc(O)c(O)c1,–,inactive
COCCl,16.4,–
CN(CC(O)CO)N=O (stereo not given),0.94,–

Structure (SMILES),Potency [mg/kg/day],outcome
COc1ccc(O)c(C(C)(C)C)c1,–,inactive; no positive results
CC(=O)Nc1nc(-c2ccc([N+](=O)[O-])o2)cs1,8.91,–
O=C(O)c1ccncc1,–,inactive; no positive results
CN(C)CCN(C)N=O,3.83,–
O=S(=O)([O-])[O-].[Cd+2],–,inactive; no positive results
O=S(=O)(O)O,118,–
Clc1ccc(C(c2ccc(Cl)cc2)C(Cl)(Cl)Cl)cc1,–,inactive; no positive results
O=CNc1nc(-c2ccc([N+](=O)[O-])o2)cs1,9.77,–
O=CNNc1nc(-c2ccc([N+](=O)[O-])o2)cs1,16.6,–
O=NN1CCOCC1,3.57,–
CC=O,565,–
Clc1c(Cl)c(Cl)c(Cl)c(Cl)c1Cl,4.96,–
CN(C)CCN(Cc1cccs1)c1ccccn1,–,inactive; no positive results
O=Cc1ccco1,–,inactive; no positive results
CN(C)N,124,–
C=CCN(CC=C)N=O,1.54,–
NC(=O)/C(=C\c1ccc([N+](=O)[O-])o1)c1ccco1,164,–
CC(=O)CN(N=O)C(N)=O,0.13,–
C=CCN(CC(C)=O)N=O,1.19,–
c1ccc(Nc2ccc3ccccc3c2)cc1,–,inactive; no positive results
N#[N+]c1ccccc1,–,inactive; no positive results
O=[N+]([O-])c1ccc2c3c(cccc13)CC2,–,inactive

Structure (SMILES),Potency [mg/kg/day],outcome
CC1CN(N=O)CC(C)N1N=O (stereo not given),3.1,–
CNN,11.5,–
C=CC(=C)Cl,–,inactive; no positive results
NNCCO,–,inactive; no positive results
C=CCl,39.4,–
[Cd+2].[Cl-].[Cl-],–,inactive; no positive results
ClC(Cl)=C(c1ccc(Cl)cc1)c1ccc(Cl)cc1,202,–
CCN(N=O)C(=O)NCCO,1.04,–
CC(=O)CN(CC(O)CO)N=O (stereo not given),0.754,–
COC1=CC(=O)C[C@@H](C)[C@]12Oc1c(Cl)c(OC)cc(OC)c1C2=O,–,inactive; no positive results
CCO,–,inactive; no positive results
CC(C)OC(=O)Nc1cccc(Cl)c1,–,inactive; no positive results
O=NN1CCOC1,0.798,–
CN(Cc1cnc2nc(N)nc(N)c2n1)c1ccc(C(=O)N[C@@H](CCC(=O)O)C(=O)O)cc1,–,inactive; no positive results
CC(=O)Nc1ccc2c(c1)Cc1ccccc1-2,17.4,–
ClC1=C(Cl)[C@]2(Cl)[C@@H]3[C@@H]4C[C@@H]([C@H]5O[C@@H]45)[C@@H]3[C@@]1(Cl)C2(Cl)Cl,–,inactive; no positive results
CCOC(=O)N(C)N=O,0.127,–
NN,4.16,–
O=NN1CCCC1c1cccnc1 (stereo not given),10.8,–
OCC1CO1 (stereo not given),56.1,–
O=NN1CCCCC1,83.3,–
CN(C)C(=O)Cl,0.625,–

Structure (SMILES),Potency [mg/kg/day],outcome
NNC(=O)c1ccncc1,–,inactive; no positive results
CC(=O)N(O)c1ccc2c(c1)Cc1ccccc1-2,2.1,–
CC1=CC(=C(c2ccc(N)cc2)c2ccc(N)cc2)C=CC1=N,–,inactive; no positive results
O=NN1CCC1,7.14,–
Cc1cc(=O)[nH]c(=S)[nH]1,53.4,–
C=O,–,inactive; no positive results
O=NO,–,inactive; no positive results
NC(=O)N(CCc1ccccc1)N=O,0.964,–
CN(CCCC(=O)c1cccnc1)N=O,–,inactive
CC(C)(Oc1ccc(C2CCCc3ccccc32)cc1)C(=O)O (stereo not given),–,inactive; no positive results
CC(=O)CN(N=O)C(=O)NCCCl,0.338,–
[O-][Br+2]([O-])O,533,–
C[C@@H]1O[C@@H](OC[C@H]2O[C@@H](Oc3c(-c4ccc(O)c(O)c4)oc4cc(O)cc(O)c4c3=O)[C@H](O)[C@@H](O)[C@@H]2O)[C@H](O)[C@H](O)[C@H]1O,–,inactive; no positive results
CCC1(c2ccccc2)C(=O)NC(=O)NC1=O,–,inactive; no positive results
O=c1ccc2ccccc2o1,–,inactive; no positive results
O=NN(CCO)CC(O)CO (stereo not given),–,inactive
CC1CN(N=O)CC(C)N1C (stereo not given),1.32,–
F[B-](F)(F)F,–,inactive; no positive results
O=C(C1CCCCC1)N1CC(=O)N2CCc3ccccc3C2C1 (stereo not given),–,inactive; no positive results
